# Assay results published in a melting point compilation (Tetko et al.; mined from patent text by program, amines drawn as free bases though some values may be those of a salt).
row,Compound,melting point [°C]
1,CCC1(C)CC2(C(=O)N(C)C(=O)N2C)C(C)C(C)(CC)N1C (stereo not given),77 to 88
2,CCCCCCC(C)(C)c1cc(OC)c(C2C(O)[C@]3(C)CC[C@H]2C3(C)C)c(OC)c1 (stereo not given in full),96 to 98
3,Cn1c(C(F)(F)F)cc(=O)n(-c2cc(N)c(Cl)cc2F)c1=O,132 to 135
4,COc1nscc1C(=O)O,182 to 185
5,COc1nc(C)nc(NC(=N)SC)n1,112
6,Cc1c(Br)cc(Cl)c(NS(=O)(=O)c2n[nH]c(NC=O)n2)c1Cl,> 290
7,CCC(=O)N[C@@H](C)C(=O)N1CCC[C@H]1C(=O)NC1CCCCCC1,155 to 156
8,O=[N+]([O-])c1ccc(Cl)c(CN2CCCCC2)c1Cl,67 to 68
9,CCC(Oc1cncc(Br)c1)C(=O)O (stereo not given),100 to 102
10,CC(=O)Oc1ccc(C(=O)O)cc1I,173 to 174
11,CC(C)(C)OC(=O)C[C@H](NC(=O)CNC(=O)c1csc(NC(=O)NCc2ccccn2)n1)C(=O)NCc1ccccn1,112
12,O[C@@H]1COC[C@H]1Oc1nc(N2CCNCC2)nc2ccccc12 (relative stereo),148 to 154
13,CC1Oc2ccc(OCCCC(C)(C)C(=O)O)cc2C=C1c1nccn1C (stereo not given),145 to 146
14,CCC(=O)N1CCCC2=C1CCc1cc(Cl)ccc12,115 to 117
15,COc1cc(OC)nc(NC(=O)NS(=O)(=O)c2c(C(F)F)nsc2OCC(F)(F)F)n1,200 to 202
16,O=c1c2c(O)cc(OCC3CS3)cc2oc2ccc3ccccc3c12 (stereo not given),167 to 168
17,O=C(CC1CCCC1)Nc1ccc2c(c1)C(=O)CCC2,117 to 118
18,COc1ccc(-c2oncc2CO)cc1,57 to 58
19,CCC(=O)C(Oc1cc(C#N)cc(C#N)c1)C(=O)OC (stereo not given),93 to 95
20,CCOCCOc1ccc(OCC(O)CNCCNC(=O)N2CCOCC2)c(Br)c1 (stereo not given),98
21,CCn1cc(C(=O)O)c(=O)c2cc(F)c(N3CCNC(COC(C)C)C3)cc21 (stereo not given),144 to 146

row,Compound,melting point [°C]
1,O=c1scc(-c2ccc(CCO)cc2)s1,92 to 94
2,CC1(C)CC(=O)C(c2c[nH]c3ccccc23)C(=O)C1,173
3,COC(=O)C1=C(C)NC(C)=C(C(=O)OC)C1C,155 to 156
4,O=C(O)c1ccc(C(F)(F)F)nc1C=CCCl,137 to 138
5,CCCCCCCCCCCCC#CCC(COC(C)=O)(COC(C)=O)NC(C)=O,95.5 to 96.5
6,COc1ccnc(C(=O)N[C@H]2COC[C@H](OCCC(C)C)[C@@H](OCCC(C)C)[C@H](C)OC2=O)c1O,61 to 70
7,CS(=O)(=O)Nc1ccc(NC(=O)C(=O)O)cc1,> 260
8,C=CC=CCC1=C(C)C(OC(=O)C2C(C=C(C)C)C2(C)C)CC1=O (stereo not given),57
9,CCOC(=O)N1Cc2cc(=O)[nH]nc2C(C)C1 (stereo not given),125 to 127
10,COc1ccnc(CCc2nc3cc(I)cnc3[nH]2)c1,207 to 208
11,Cn1ccc(=O)c(O)c1CC(O)c1cccnc1 (stereo not given),215 to 220
12,C#CCSC(=NC(=O)OC)NC(=O)Nc1ccc(C)cc1,161 to 162
13,COC(=O)CCC#CCCC(=O)O,71.5 to 72
14,COc1ccc(CCN(C)CCCNc2c(Cl)cn[nH]c2=O)cc1OC,89 to 90
15,[N-]=[N+]=C1C(=O)CCc2ccccc21,42.5 to 44.2
16,COc1cc(C(C)=O)c(OC)cc1C,75 to 77
17,C=Cc1cc(C(=O)OC)c(NC(C)=O)cc1C(F)(F)F,79 to 81
18,COC(=O)c1sc(C)c2[nH]c(C(F)(F)C(F)(F)C(F)(F)F)nc12,147 to 148
19,Fc1cc(N2CCNCC2)c2ncccc2c1,103
20,COc1ccc2c(c1)CCCC2(N)CO (stereo not given),89 to 95.6
21,CCNc1cc(Cl)nc(C#N)c1N,150

# Now from value to molecule:
row,melting point [°C],Compound
1,254 to 257,C=Cn1cc(C(=O)O)c(=O)c2cc(F)c(-c3ccncc3)nc21
2,219,C=CCOc1cc(-c2cc(=O)c3c(O)cc(O)cc3o2)ccc1OC
3,56 to 57,CCCCCCc1ccc(C=CC(=O)c2ccc(OCC=C(C)C)cc2OCC(=O)OCC)cc1
4,74 to 77,c1ccc(Oc2cnccc2N2CCNCC2)cc1
5,210 to 213,COc1cc2c(cc1C(F)(F)F)N(C(=O)Nc1ccc(Cl)c(-c3cccnc3)c1)CC2
6,151 to 152,COc1ccc(CC(=O)Nc2cc(Cl)ccc2O)cc1OC1CCCC1
7,325 to 329,CCc1nc(C)c(CC(=O)O)c(=O)n1Cc1ccc(-c2ccccc2-c2nnn[nH]2)cc1
8,142 to 144,Cc1ccc(S(=O)(=O)N(C)c2ccc(Cl)cc2S(C)=O)cc1 (stereo not given)
9,37 to 39,COC(=O)C(C)c1ccc2c(=O)c3ccccc3ccc2c1 (stereo not given)
10,217 to 220,O=C(O)c1ccc(Cl)nc1NCc1ccncc1
11,182 to 184,O=C(NC(Cc1c[nH]c2ccccc12)C(=O)NCc1cc(C(F)(F)F)cc(C(F)(F)F)c1)c1ccccc1 (stereo not given)
12,165 to 167,COc1ccc(NN=C(Sc2cc(C)cc(C)c2)C(C)=O)cc1
13,324 to 327,O=C1NC(=O)c2c1cc1ccc3c(c1c2-c1ccc(Br)cc1)OCO3
14,144 to 147,O=C(C=Cc1ccccc1Sc1ccc(Cl)cc1)N1CCCC1=O
15,212 to 214,Cn1ncc(C(=O)N2CCOCC2)c1C(=O)Nc1ccn2nc(-c3cccc(F)c3)nc2c1
16,283 to 284,CN1C(C(=O)Nc2cncc(Cl)n2)=C(O)c2cc(Cl)ccc2S1(=O)=O
17,178,Nc1nc(O)c2c(n1)NCC(CN(C=O)Cc1ccc(C(=O)N[C@@H](CCC(=O)O)C(=O)O)cc1)C2 (stereo not given in full)
18,103 to 105,COC(=O)c1csc(-c2ccc(F)cc2)n1
19,90 to 94,COC(=O)c1ccc(Cn2c(=O)c3c(N4CCN(C)CC4)cc(Cl)cc3n(Cc3ccccc3)c2=O)cc1
20,95 to 98,CC(C)c1nc(COCc2ccccc2)n(Cc2cnc3ccccc3c2)c1Sc1cc(Cl)cc(Cl)c1

row,melting point [°C],Compound
1,156,COc1ccc(C(=O)CC2CCN(CCn3c(=O)[nH]c4ccccc43)CC2)cc1
2,205 to 207,COc1ccc(-c2csc(Nc3ccncc3)n2)cc1OC
3,265 to 268,COc1nc(C(F)(F)F)cc(=O)n1-c1ccc(Cl)c(C(=O)O)c1
4,151 to 152,CN1CCC(c2c[nH]c3ccc(NC(=O)c4ccc(Cl)cc4Cl)nc23)CC1
5,101 to 103,O=Cc1cc2ccccc2n1-c1cccnc1
6,129,O=C(O)c1nc(SCc2ccccc2)ccc1SCc1ccccc1
7,172 to 175,O=S(=O)(Nc1ccc2ccc(OCc3ccc4ccccc4n3)cc2c1)C(F)(F)F
8,71 to 73,COc1cc(C(C)C)c2c(c1)S(=O)(=O)N(COC(=O)c1cccc(O)c1)C2=O
9,113 to 117,CCOC(=O)c1cc(SC(F)F)c(-c2ccc(Cl)cc2)[nH]1
10,208,N=C(N)Nc1ccc(Cl)c(Cl)c1
11,172 to 174,NCc1c(CN(Cc2ccccc2)Cc2ccccc2)cccc1C(F)(F)C(F)(F)c1ccccc1
12,95 to 96,CCOC(=O)c1ccccc1OCCCCCCCCCCC(=O)CCCCOc1ccc(Cl)cc1
13,239,CN(Cc1ccc(-c2ccc(OCc3nnn[nH]3)c(Br)c2)cc1)C(=O)c1cn(C)c2ccccc12
14,173 to 175,O=C(c1ccc(Cc2c(Cl)cc(NN=Cc3ccccc3)cc2Cl)cc1)c1cnc(Cl)c(Cl)c1
15,79 to 81,CCOC(=O)C=CC(=O)N(CC(C)(C)C)c1sc(Cl)cc1C(=O)c1ccccc1Cl
16,196 to 198,O=c1c(=NO)c2ccccc2oc2cc(F)ccc12
17,151 to 154,CCCNCCc1ccc(NS(=O)(=O)c2ccc(OC(F)(F)F)cc2)cc1
18,61 to 63,COc1ccc(CCOc2ccc(C(=O)N/C(=C\c3ccc(SC)cc3)C(=O)NCCO)cc2)cc1
19,61 to 63,CC[C@@H](c1ccccc1)N(Cc1ccc(S(C)(=O)=O)cc1)S(=O)(=O)c1ccc(Cl)cc1
20,130 to 131,N=C(Nc1ccc(CCNCc2cccc(F)c2)cc1)c1cccs1

row,melting point [°C],Compound
1,110 to 113,Cn1ccnc1Sc1ccc(Nc2c(C#N)cnc3cc(-c4csc(CN5CCOCC5)c4)ccc23)cc1Cl
2,209 to 210,COC(=O)Cc1cc(=O)[nH]c2ccccc12
3,264 to 267,O=C1c2ccccc2C(=O)N1CC(=O)N1c2ccccc2N(Cc2ccc(O)cc2)C(=O)[C@H]2CCC[C@H]21 (relative stereo)
4,123 to 125,O=C(O)COCCCCS(=O)(=O)c1cnc(-c2ccccc2)c(-c2ccccc2)n1
5,205 to 206,CC(C)OC(=O)c1ncn2c1cnc1ccccc12
6,104 to 106,COC(=O)c1ccc(CN([C@@H](CO)c2ccccc2)S(=O)(=O)c2ccc(Cl)cc2)cc1
7,129 to 131,COc1cccc(CN2CCC3(CC2)CSC2=C(O3)c3ccccc3C(=O)C2=O)c1
8,120,Cn1ccnc1COc1cccc(Nc2cc(-c3c[nH]nc3-c3ccccn3)ccn2)c1
9,228,N#Cc1cccc(C2=Nc3ccc(C#CC4=CCCCC4)cc3NC(=O)C2)c1
10,206 to 208,O=S(=O)(Nc1cccc(Cl)c1)c1cc(S(=O)(=O)Nc2cccc(Cl)c2)c2cc(O)ccc2c1
11,264 to 268,O=C(O)c1cn(-c2ccc(F)cc2F)c2c(F)c(N3Cc4ccccc4C3)c(F)cc2c1=O
12,156,CCCCOCCOc1ccc(-c2ccc3c(c2)C=C(C(=O)Nc2ccc(/C(Cc4nccn4CCC)=N/OCC)cc2)CCN3CC(C)C)cc1
13,188 to 190,O=C(NN=Cc1ccc(Cl)cc1)c1cccnc1
14,169,O=C(O)Cc1ccc(SCc2ccccc2C(=O)O)cc1
15,92 to 95,CCCCCC(OC(C)=O)c1ccccc1COc1cccc2ccc(=O)[nH]c12 (stereo not given)
16,236,CCN(CC)C(=O)c1c(C(C)(O)c2cc3cnccc3n2S(=O)(=O)c2ccccc2)ccnc1OC (stereo not given)
17,141 to 143,COc1ccc(C(CCCCC(=O)O)C2=CC(=O)c3ccccc3C2=O)cc1 (stereo not given)
18,102 to 109,Cc1noc(NS(=O)(=O)c2ccccc2-c2ccc(-c3ncco3)cc2/C=C/c2ccccc2)c1C
